From patent US10688082B2, “Aminopyrazine compounds with A2A antagonist properties” (Merck Sharp & Dohme Corp., priority 2015, dated 2020)

Molecular target: T1, human A2a receptor (Homo sapiens, UniProt P29274)
T1 construct: purchased Perkin-Elmer RBHA2AM400UA; host or cells: HEK293 cells (membranes)
Assay: Competition binding assay using Scintillation Proximity technology (A2a activity)
Description: Binding affinities of compounds of the invention for the human A2a receptor were determined in a competition binding assay using Scintillation Proximity technology. Thus, […] from HEK293 cells expressing the human A2a receptor were incubated with a compound of the invention at concentrations ranging from 3000 nM to 0.15 nM in a reaction mixture containing also 0.5 nM of a tritiated form of 5-amino-7-[2-phenethyl]-2-(furan-2-yl)-7H-pyrazolo[4,3-e][1,2,4]triazolo[1,5-c]pyrimidine (the tritiated compound) and 100 μg of wheat germ agglutin-coated yttrium silicate SPA beads for one hour at room temperature with agitation. The beads were then allowed to settle to the bottom of the wells for 1 hr, after which the membrane-associated radioactivity was determined by scintillation counting in a TopCount microplate reader. Ki values were determined using the Cheng-Prusoff equation.
HEK293 cells expressing the human, rat, dog or monkey adenosine 2a receptor (Purchased from Perkin-Elmer # RBHA2AM400UA).
The Tritiated compound was prepared according to published methods.
Wheat germ agglutinin-coated yttrium silicate SPA beads (GE Healthcare # RPNQ0023). Dilute to 25 mg/ml in assay buffer.
Assay Buffer was prepared using Dulbecco's calcium and magnesium free phosphate buffered saline+10 mM MgCl2
Adenosine deaminase from calf intestine, 10 mg/2 ml (Roche #10 102 105 001).
A2a antagonist standard (9-chloro-1-(2-furanyl)-[1,2,4]triazolo1,5-c]quinazolin-5-amine from Tocris Bioscience)
Make eight 1:3 serial dilutions in 100% DMSO from a 3 mM compound stock
Transfer 50 nl of compound into a 384-well OptiPlate (Perkin Elmer).
Typically, final concentrations of compound used in the assay ranged from 3000 nM to 0.152 nM.
Dilute a solution of the Tritiated compound to 1.25 nM in assay buffer. This is a 2.5× solution. The final concentration in the assay is 0.5 nM. Calculate the concentration by counting two 5 μl aliquots.
Use 0.25 ug of membrane/well. Dilute membranes to 9.7 μg/ml in assay buffer. Treat with 20 ug/ml adenosine deaminase (ADA) for 15 minutes at room temperature to degrade endogenous adenosine.
Use 100 μg/well wheat germ agglutinin-coated yttrium silicate SPA beads.
Mix ADA-treated membranes and SPA beads together for 30 min prior to assay.
To the Perkin-Elmer Optiplate-384 containing the compound titration add 20 μl of 2.5× solution of the Tritiated compound and 30 μl of the membrane-bead mixture. Incubate for one hour at room temperature with agitation.
Include total binding (assay buffer+1% DMSO) and non-specific binding (CGS15943, 1 μM) wells.
Allow the beads to settle for one hour.
A curve fitting program (i.e., Prism, Activity Base, Chemcart) is used to determine the EC50. The Ki value is calculated using the Cheng-Prusoff equation. K i=EC50/(1+(radioligand concentration/Kd))

[1] = membranes from HEK293 cells expressing the human A2a receptor, 0.5 nM tritiated ligand, Cheng-Prusoff

T1 sequence (P29274 whole entry): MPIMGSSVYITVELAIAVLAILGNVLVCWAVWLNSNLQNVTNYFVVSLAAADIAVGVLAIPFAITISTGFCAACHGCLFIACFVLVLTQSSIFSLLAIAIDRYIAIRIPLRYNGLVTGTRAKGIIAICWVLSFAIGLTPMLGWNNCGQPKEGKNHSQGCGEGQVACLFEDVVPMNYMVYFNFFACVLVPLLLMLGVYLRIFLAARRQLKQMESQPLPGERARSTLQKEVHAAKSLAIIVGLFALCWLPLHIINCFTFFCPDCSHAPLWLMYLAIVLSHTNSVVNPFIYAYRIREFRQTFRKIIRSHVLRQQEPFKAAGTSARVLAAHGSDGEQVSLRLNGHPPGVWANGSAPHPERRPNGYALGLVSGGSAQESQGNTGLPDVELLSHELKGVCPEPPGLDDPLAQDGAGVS

SMILES | Ki [1] [nM] | Ki (same protocol) [nM]
COc1cccc2c1nc(N)n1nc(Cc3cccc(N4CCOCC4)c3)cc21 [Ex-23, 7-methoxy-2-(3-morpholinobenzyl)pyrazolo[1,5-c]quinazolin-5-amine] | 26 | 
COc1cccc2c1nc(N)n1nc(Cc3cccc(Cl)c3Cl)cc21 [Ex-43, 2-(2,3-dichlorobenzyl)-7-methoxypyrazolo[1,5-c]quinazolin-5-amine] | 80 | 
COc1cccc2c1nc(N)n1nc(Cc3ccc(N4CCOCC4)cc3)cc21 [Ex-22, 7-methoxy-2-(4-morpholinobenzyl)pyrazolo[1,5-c]quinazolin-5-amine] | 128 | 
COc1cccc2c1nc(N)n1nc(Cc3cccc(F)c3)cc21 [Ex-31, 2-(3-fluorobenzyl)-7-methoxypyrazolo[1,5-c]quinazolin-5-amine] | 2 | 
COc1ccccc1Cc1cc2c3cccc(OC)c3nc(N)n2n1 [Ex-32, 7-methoxy-2-(2-methoxybenzyl)pyrazolo[1,5-c]quinazolin-5-amine] | 1 | 
COc1cccc2c1nc(N)n1nc(Cc3cccc4ccccc34)cc21 [Ex-7, 7-methoxy-2-(naphthalen-1-ylmethyl)pyrazolo[1,5-c]quinazolin-5-amine] | 16 | 
COc1cccc2c1nc(N)n1nc(Cc3cccc(C#N)c3)cc21 [Ex-52, 3-((5-amino-7-methoxypyrazolo[1,5-c]quinazolin-2-yl)methyl)benzonitrile] | 33 | 
COc1cccc2c1nc(N)n1nc(Cc3ccccc3OC(F)(F)F)cc21 [Ex-46, 7-methoxy-2-(2-(trifluoromethoxy)benzyl)pyrazolo[1,5-c]quinazolin-5-amine] | 34 | 
COc1cccc2c1nc(N)n1nc(Cc3ccccc3N(C)C)cc21 [Ex-47, 2-(2-(dimethylamino)benzyl)-7-methoxypyrazolo[1,5-c]quinazolin-5-amine] | 1 | 
COc1cccc2c1nc(N)n1nc(Cc3ccccc3OC(F)F)cc21 [Ex-55, 2-(2-(difluoromethoxy)benzyl)-7-methoxypyrazolo[1,5-c]quinazolin-5-amine] | 10 | 
COc1cccc2c1nc(N)n1nc(Cc3c(F)cccc3F)cc21 [Ex-42, 2-(2,6-difluorobenzyl)-7-methoxypyrazolo[1,5-c]quinazolin-5-amine] | 3 | 
COc1cccc2c1nc(N)n1nc(Cc3ccc(N4CCN(C(=O)OC(C)(C)C)CC4)cc3)cc21 [Ex-24, tert-butyl 4-(4-((5-amino-7-methoxypyrazolo[1,5-c]quinazolin-2-yl)methyl)phenyl)piperazine-1-carboxylate] | 224 | 
COc1cccc2c1nc(N)n1nc(Cc3c(F)cccc3Cl)cc21 [Ex-38, 2-(2-chloro-6-fluorobenzyl)-7-methoxypyrazolo[1,5-c]quinazolin-5-amine] | 25 | 
COc1cccc2c1nc(N)n1nc(Cc3cccc4ncccc34)cc21 [Ex-15, 7-methoxy-2-(quinolin-5-ylmethyl)pyrazolo[1,5-c]quinazolin-5-amine] | 85 | 
COc1cccc2c1nc(N)n1nc(Cc3csc(N4CCN(C)CC4)n3)cc21 [Ex-13, 7-methoxy-2-((2-(4-methylpiperazin-1-yl)thiazol-4-yl)methyl)pyrazolo[1,5-c]quinazolin-5-amine] | 373 | 
COc1cccc2c1nc(N)n1nc(Cc3cncnc3)cc21 [Ex-10, 7-methoxy-2-(pyrimidin-5-ylmethyl)pyrazolo[1,5-c]quinazolin-5-amine] | 36 | 
COc1cccc2c1nc(N)n1nc(Cc3ccccc3CN3CCC(C)(O)CC3)cc21 [Ex-27, 1-(2-((5-amino-7-methoxypyrazolo[1,5-c]quinazolin-2-yl)methyl)benzyl)-4-methylpiperidin-4-ol] | 18 | 
COc1cccc2c1nc(N)n1nc(Cc3ccccc3C#N)cc21 [Ex-50, 2-((5-amino-7-methoxypyrazolo[1,5-c]quinazolin-2-yl)methyl)benzonitrile] | 2 | 
COc1cccc2c1nc(N)n1nc(Cc3ccccc3Cl)cc21 [Ex-45, 2-(2-chlorobenzyl)-7-methoxypyrazolo[1,5-c]quinazolin-5-amine] | 10 | 
COc1cccc2c1nc(N)n1nc(Cc3cccnc3N3CCOCC3)cc21 [Ex-20, 7-methoxy-2-((2-morpholinopyridin-3-yl)methyl)pyrazolo[1,5-c]quinazolin-5-amine] | 15 | 

Next, values leading:

Ki [1] [nM] | Ki (same protocol) [nM] | SMILES
7 |  | COC(=O)N1CCC2(CCN(C(=O)c3cc4c5cccc(OC)c5nc(N)n4n3)C2)C1 (stereo not shown) [Ex-88, methyl 7-(5-amino-7-methoxypyrazolo[1,5-c]quinazoline-2-carbonyl)-2,7-diazaspiro[4.4]nonane-2-carboxylate]
21 |  | COc1cccc2c1nc(N)n1nc(Cc3cccc(C#N)c3F)cc21 [Ex-61, 3-((5-amino-7-methoxypyrazolo[1,5-c]quinazolin-2-yl)methyl)-2-fluorobenzonitrile]
68 |  | Nc1nc2ccccc2c2cc(Cc3ccnc4ccccc34)nn12 [Ex-95, 2-(quinolin-4-ylmethyl)pyrazolo[1,5-c]quinazolin-5-amine]
22 |  | COc1cccc2c1nc(N)n1nc(Cc3cccc4ccc(C)nc34)cc21 [Ex-60, 7-methoxy-2-((2-methylquinolin-8-yl)methyl)pyrazolo[1,5-c]quinazolin-5-amine]
7 |  | Nc1nc2c(F)cccc2c2cc(-c3nnc(Cc4ccc5cccnc5c4)o3)nn12 [Ex-113, 7-fluoro-2-(5-(quinolin-7-ylmethyl)-1,3,4-oxadiazol-2-yl)pyrazolo[1,5-c]quinazolin-5-amine]
1 |  | COc1cccc2c1nc(N)n1nc(C(=O)NCc3ccc(Br)cc3F)cc21 [Ex-79, 5-amino-N-(4-bromo-2-fluorobenzyl)-7-methoxypyrazolo[1,5-c]quinazoline-2-carboxamide]
80 |  | COc1cccc2c1nc(N)n1nc(C(=O)N3CCC4(CCN(C(=O)OC(C)(C)C)C4)CC3)cc21 [Ex-83, tert-butyl 8-(5-amino-7-methoxy-pyrazolo[1,5-c]quinazoline-2-carbonyl)-2,8-diazaspiro[4.5]decane-2-carboxylate]
5 |  | COc1cccc2c1nc(N)n1nc(Cc3cc(F)cc(F)c3)cc21 [Ex-65, 2-(3,5-difluorobenzyl)-7-methoxypyrazolo[1,5-c]quinazolin-5-amine]
24 |  | COc1cccc2c1nc(N)n1nc(CN3Cc4ccc(F)cc4C3)cc21 [Ex-68, 2-((5-fluoroisoindolin-2-yl)methyl)-7-methoxypyrazolo[1,5-c]quinazolin-5-amine]
11 |  | COc1cccc2c1nc(N)n1nc(C(=O)N3CCC4(CCN(C(=O)OC(C)(C)C)C4)C3)cc21 (stereo not shown) [Ex-85, tert-butyl 7-(5-amino-7-methoxypyrazolo[1,5-c]quinazoline-2-carbonyl)-2,7-diazaspiro[4.4]nonane-2-carboxylate]
101 |  | COc1cccc2c1nc(N)n1nc(-c3nc(-c4ccccc4)no3)cc21 [Ex-92, 7-methoxy-2-(3-phenyl-1,2,4-oxadiazol-5-yl)pyrazolo[1,5-c]quinazolin-5-amine]
 | 7 | COc1cccc2c1nc(N)n1nc(C(=O)N3CCN(c4ccccn4)CC3)cc21 [Ex-70, (5-amino-7-methoxypyrazolo[1,5-c]quinazolin-2-yl)(4-(pyridin-2-yl)piperazin-1-yl)methanone]
7 |  | COc1cccc2c1nc(N)n1nc(Cc3ccccc3-n3cccn3)cc21 [Ex-63, 2-(2-(1H-pyrazol-1-yl)benzyl)-7-methoxypyrazolo[1,5-c]quinazolin-5-amine]
8 |  | Nc1nc2ccc(F)cc2c2cc(C(=O)N3CCN(c4ccc(F)cc4F)CC3)nn12 [Ex-114, (5-amino-9-fluoropyrazolo[1,5-c]-quinazolin-2-yl)(4-(2,4-difluorophenyl)piperazin-1-yl)methanone]
10 |  | Nc1nc2ccccc2c2cc(Cc3cccc4cccnc34)nn12 [Ex-94, 2-(quinolin-8-ylmethyl)pyrazolo[1,5-c]quinazolin-5-amine]
45 |  | Nc1nc2ccc(F)cc2c2cc(Cc3cccc4cccnc34)nn12 [Ex-105, 9-fluoro-2-(quinolin-8-ylmethyl)pyrazolo[1,5-c]quinazolin-5-amine]
53 |  | Nc1nc2ccccc2c2cc(Cc3ccccc3N3CCOCC3)nn12 [Ex-96, 2-(2-morpholinobenzyl)pyrazolo[1,5c]-quinazolin-5-amine]
